Measured values taken from US10640532B2, “Crystal of reduced glutathione” (University Public Corporation Osaka, priority 2015, dated 2020).
Like-named read-outs stand apart in the source and are kept apart here.

Settings: storage 40° C., 75% relative humidity
Protocol: The amorphous solid of a reduced glutathione-sodium salt obtained in (1) of Example 1, and the final crystal of a reduced glutathione-sodium salt obtained in Example 1 were compared for hygroscopicity under the following conditions.
Storage conditions: 40° C., 75% relative humidity (adjusted with saturated brine)
Measurement conditions: About 0.3 g of a sample was weighed with a precision balance, and charged into a plastic container. After being stored under the foregoing storage conditions, the sample was weighed, and the percentage of weight change was calculated.
The measured sample weight at each time point is relative to the 100% initial weight at the start of testing. In table 5, the symbol “-” means no measurement.

Row | weight (%) relative to 100% initial weight (elapsed time 0 h) | weight (%) relative to 100% initial weight (elapsed time 0.25 h) | weight (%) relative to 100% initial weight (elapsed time 2 h) | weight (%) relative to 100% initial weight (elapsed time 4 h) | weight (%) relative to 100% initial weight (elapsed time 10 h) | weight (%) relative to 100% initial weight (elapsed time 20 h) | weight (%) relative to 100% initial weight (elapsed time 48 h) | Structure (SMILES) | hygroscopicity / preservation stability compared with the amorphous solid (up to 48 h)
1 | 100% | 100.7% | 104.1% | 106.2% | 110.2% | 117.3% | 125.8% | N[C@@H](CCC(=O)N[C@@H](CS)C(=O)NCC(=O)O)C(=O)[O-].[Na+] [Amorphous, reduced glutathione-sodium salt] | 
2 | 100% |  | 100.7% |  | 101.9% | 102% | 102.9% | N[C@@H](CCC(=O)N[C@@H](CS)C(=O)NCC(=O)O)C(=O)[O-].[Na+] [Crystal, reduced glutathione-sodium salt] | less likely to absorb moisture than the amorphous solid
